Results taken from article PMC6112376, “Comprehensive Analyses and Prioritization of Tox21 10K Chemicals Affecting Mitochondrial Function by in-Depth Mechanistic Studies” (Environmental Health Perspectives, 2018).
Counter-ions that a name gives are not always drawn. Like-named read-outs stand apart in the source and are kept apart here.

Key:
rat primary hepatocytes [1] = test: MMP assay in rat primary hepatocytes; conditions: for IC50: read-out: MMP assays IC50 (µM) Rat Hepatocytes
rat primary hepatocytes [2] = test system: rat primary hepatocytes
HepG2 cells [3] = conditions: for IC50: read-out: MMP assays IC50 (µM) HepG2
HepG2 cells [4] = conditions: cited from earlier work
[5] = read-out: MMP assays IC50 (µM), qHTS-HepG2
[6] = read-out: MMP assays IC50 (µM) qHTS-HepG2
[7] = HepG2 cells, single number from one experiment

Compound	IC50 (rat primary hepatocytes [1]) [µM]	MMP assays efficacy (%) Rat Hepatocytes (rat primary hepatocytes [2])	MMP assays efficacy (%) HepG2 (HepG2 cells [3])	IC50 (HepG2 cells [3]) [µM]	MMP assays efficacy (%) qHTS-HepG2 (HepG2 cells [4])	IC50 (HepG2 cells [4]; [5]) [µM]	IC50 (rat primary hepatocytes [1]; Rattus norvegicus, Hepatocyte) [µM]	MMP assays IC50 (µM) HepG2 (HepG2 cells [3])	IC50 (HepG2 cells [4]; [6]) [µM]	MMP assays IC50 (µM) Rat Hepatocytes (rat primary hepatocytes [1])	MMP assays IC50 (µM) qHTS-HepG2 (HepG2 cells [4])	IC50 (rat primary hepatocytes [1]; rat hepatocytes, mean ± SD of three experiments) [µM]	MMP assays efficacy (%) HepG2 (HepG2 cells [3]; [7]) [%]	IC50 (HepG2 cells [3]; [7]) [µM]
O=c1c(O)c(-c2ccc(O)c(O)c2)oc2cc(O)cc(O)c12 [Quercetin dihydrate]	5.83 ± 4.93	-71±22%	-96%	2.95	-98±4%	6.2 ± 2.32								
O=C(c1ccc(OCCN2CCCCC2)cc1)c1c(-c2ccc(O)cc2)sc2cc(O)ccc12 [Raloxifene]		-92±39%	-96%	17.8	-121±25%	5.05 ± 3.99	22.4 ± 24.1							
Tributyltin chloride	8.95 ± 1.03	-136±58%	-96%	0.89	-97±11%	0.11 ± 0.02								
Methyl violet	1.73	-81±20%	-100%	0.44	-121±3%	0.07 ± 0.03								
O=[N+]([O-])c1cccc2ccccc12 [Compound 1-Nitronaphthalene]		-54±17%	inactive		-40±7%		45.9 ± 14.7	inactive	59.7 ± 7.06					
CCCCCCCC/C=C\CCCCCCCC(=O)NCc1ccc(O)c(OC)c1 [Olvanil]		inactive	inactive		-74±8%	13.5 ± 1.9		inactive		inactive				
CCCCCc1cc(O)c2c(c1)OC(C)(C)[C@@H]1CCC(C)=C[C@@H]21		inactive	-99%	15.5	-124±8%				4.99 ± 1.66	inactive				
CC1=C(/C=C/C(C)=C/C=C/C(C)=C/C(=O)Nc2ccc(O)cc2)C(C)(C)CCC1		inactive	-92%	4.89	-100±0%				3.4 ± 0.76	inactive				
Cc1ccc(S(=O)(=O)NC2CCCCC2)cc1 [N-Cyclohexyl-4-methyl benzenesulfonamide]	38.1 ± 25.6	-46±15%	inactive		-83±10%	36.1 ± 21		inactive						
O=c1oc2ccccc2c(O)c1C(CC(O)c1ccc(-c2ccc(Br)cc2)cc1)c1ccccc1 (stereo not shown) [Bromadiolone]	3.4 ± 0.83	-79±51%	-108%	4.35	-105±3%				16.7 ± 1.13					
NC(=O)c1cc([N+](=O)[O-])cc([N+](=O)[O-])c1 [Nitromide]		inactive	inactive		inactive			inactive		inactive	inactive			
CC(C)c1ccc(O)c(C(C)C)c1 [2,4-Diisopropylphenol]		inactive	-115%	35.5	-107±10%				17.2 ± 1.99	inactive				
Cresyl diphenyl phosphate	23 ± 9	-76±37%	-91%	3.55					2.38 ± 2.32					
CC(c1ccc(O)cc1)c1ccc(O)cc1 [Bisphenol E]	36.5 ± 19.2	-56±19%	-147%	25.1	-127±8%				27.6 ± 1.8					
COc1cc([C@@H]2c3cc4c(cc3[C@@H](O)[C@H]3COC(=O)[C@H]23)OCO4)cc(OC)c1O [4'-Demethylepipodophyllotoxin]		inactive	-63%	2.18	-51±8%				2.66 ± 3.92	inactive				
O=C(Nc1cccc([N+](=O)[O-])c1)c1cc2ccccc2cc1O	1.6 ± 0.26	-89±5%	-93%	0.28	-91±2%				0.24 ± 0.09					
COc1ccc(N)cc1N.O=S(=O)(O)O [2,4-Diaminoanisole sulfate]	19.6 ± 19.3	-58±24%	-125%	7.94	-95±6%				2.51 ± 1.16					
COC(=O)c1c(C)cc(O)c(C)c1O		-81±57%				16 ± 6.62						30.6 ± 28.4	-103	25.1
Cc1cccc(C)c1OCC(=O)N[C@@H](Cc1ccccc1)[C@@H](O)C[C@H](Cc1ccccc1)NC(=O)[C@H](C(C)C)N1CCCNC1=O [Lopinavir;ABT-738]	15.4 ± 21.8	-27±0%	inactive		-66±16%	32.7 ± 1.32		inactive						
CCC[CH2][Sn]([CH2]CCC)([CH2]CCC)[CH2]CCC [Tetrabutyltin]		inactive	-98%	11.2	-100±1%	5.66 ± 1.03				inactive				
CC(=O)O[C@H]1C[C@H](O[C@H]2[C@@H](O)C[C@H](O[C@H]3[C@@H](O)C[C@H](O[C@H]4CC[C@@]5(C)[C@H](CC[C@@H]6[C@@H]5CC[C@]5(C)[C@@H](C7=CC(=O)OC7)[C@@H](O)C[C@]65O)C4)O[C@@H]3C)O[C@@H]2C)O[C@H](C)[C@H]1O[C@@H]1O[C@H](CO)[C@@H](O)[C@H](O)[C@H]1O [Lanatoside B]		inactive	-96%	0.69	-68±14%	1.1 ± 0.2				inactive				
CCCCCCCCCCn1cc[n+](CCCCCCCCCC)c1C.[Cl-] [1,3-Didecyl-2-methylimidazolium chloride]	26.2 ± 3.35	-110±29%	-104%	3.16	-83±13%				3.86 ± 4.19					
O=[Se](O)O [Selenious acid]	44.1 ± 26.9	-75±56%	inactive		-68±13%	16 ± 22.8		inactive						
O=C(c1ccc(OCCN2CCCCC2)cc1)c1c(-c2ccc(O)cc2)sc2cc(O)ccc12 [Raloxifene hydrochloride]	20.9 ± 7.23	-87±14%	-127%	7.94	-98±9%	6.69 ± 1.65								
CC(=O)OCC(=O)[C@@]12OC(C)(C)O[C@@H]1C[C@H]1[C@@H]3C[C@H](F)C4=CC(=O)C=C[C@]4(C)[C@@]3(F)[C@@H](O)C[C@@]12C [Fluocinonide]		inactive	inactive		inactive			inactive		inactive	inactive			
